The results in this text go back to US5656662A, “Synthesis of optically pure 4-alkenyl- or 4-alkanyl-2-hydroxytetronic acids” (The Ohio State University Research Foundation, priority 1995, dated 1997).

Each structure is given as a SMILES string.

Type in all cases: cell-based
Experiment [1] concerns peptidoleukotrienes. Description: Peptidoleukotriene production by purified human monocytes. Also noted: key: NE: No effect; INHIB: Inhibition; STIM: Stimulation; IC40: 40% Inhibitory Concentration; EC50: 50% Effective Concentration; TC: Tolerated Concentration; IA: Interferes with Assay. As for the experimental part: This procedure measures the ability of test compounds to modulate the amount of peptidoleukotrienes produced by purified human monocytes. Compounds are tested for their ability to downregulate the secretion of peptidoleukotrienes from activated monocytes, or upregulate secretion of peptidoleukotrienes from unstimulated monocytes. Test compounds are incubated for ninety minutes with purified human monocytes at four dilutions over a range of three log10 concentrations. Where appropriate, zymosan is used to stimulate the monocytes.
The level of peptidoleukotrienes in the resultant supernatants is quantitated by immunoassay performed in a 96 well format. Peptidoleukotriene levels modulated by unknown compounds are determined by interpolation from a standard curve. All compounds are tested in duplicate with controls and standards.

Experiment [2] concerns IL-1ra. Description: IL-1ra secretion from purified human monocytes. Set-up: key: NE: No effect; INHIB: Inhibition; STIM: Stimulation; IC40: 40% Inhibitory Concentration; EC50: 50% Effective Concentration; TC: Tolerated Concentration; IA: Interferes with Assay. Here is the method:
This assay determines the effect of test compounds on the secretion of IL-1ra from purified human monocytes. Compounds are tested for their ability to downregulate or upregulate the production of IL-1ra in unstimulated monocytes and in activated monocytes. Test compounds are incubated for sixteen hours with purified human monocytes at four dilutions over a range of three log10 concentrations. Where appropriate, lipopolysaccharide (LPS) is used to stimulate the monocytes.
The level of IL-1ra in the resultant supernatants is quantitated in a solid phase Enzyme-linked Immunoassay (EIA) performed in a 96 well format. IL-1ra present in the samples is captured by a specific monoclonal antibody immobilized on the well, and probed with an anti-IL-1ra polyclonal antibody. A second antibody conjugated to horseradish peroxidase is then added, followed by an appropriate substrate. The levels of IL-1ra are determined by interpolation of the resultant color change in the substrate from a standard curve. […]
This assay determines the effect of test compounds on the secretion of IL-1ra from purified human monocytes. […] The level of IL-1ra in the resultant supernatants is quantitated in a solid phase Enzyme-linked Immunoassay (EIA) performed in a 96 well format. […] The levels of IL-1ra are determined by interpolation of the resultant color change in the substrate from a standard curve. […]

The test system of experiment [3] is IL-1β. Put plainly: IL-1β secretion from purified human monocytes. Set-up: key to EFFECT on IL1β: NE: No effect; INHIB: Inhibition; STIM: Stimulation; IC40: 40% Inhibitory Concentration; EC50: 50% Effective Concentration; TC: Tolerated Concentration; IA: Interferes with Assay. As for the experimental part:
This assay determines the effect of test compounds on the secretion of IL-1β from purified human monocytes.
Compounds are tested for their ability to downregulate the production of IL-1β in activated monocytes, or upregulate secretion of IL-1β in unstimulated monocytes. Test compounds are incubated for sixteen hours with purified human monocytes at four dilutions over a range of three log10 concentrations. Where appropriate, lipopolysaccharide (LPS) is used to stimulate the monocytes.
The level of IL-1β in the resultant supernatants is quantitated in a solid phase Enzyme-linked Immunoassay (EIA) performed in a 96 well format. IL-1β present in the samples is captured by a specific monoclonal antibody immobilized on the well, and probed with an anti-IL-1β polyclonal antibody conjugated to horseradish peroxidase, followed by an appropriate substrate. The levels of IL-1β are determined by interpolation of the resultant color change in the substrate from a standard curve. All supernatants are tested in duplicate with controls and standards.
This assay determines the effect of test compounds on the secretion of IL-1β from purified human monocytes. Compounds are tested for their ability to downregulate the production of IL-1β in activated monocytes, or upregulate secretion of IL-1β in unstimulated monocytes. Test compounds are incubated for sixteen hours with purified human monocytes at four dilutions over a range of three log10 concentrations. Where appropriate, lipopolysaccharide (LPS) is used to stimulate the monocytes.

In experiment [4] the test system is IL-8. Description: IL-8 secretion from purified human monocytes. Set-up: key: NE: No effect; INHIB: Inhibition; STIM: Stimulation; IC40: 40% Inhibitory Concentration; EC50: 50% Effective Concentration; TC: Tolerated Concentration; IA: Interferes with Assay. Here is the method: This assay determines the effect of test compounds on the secretion of IL-8 from purified human monocytes. Compounds are tested for their ability to downregulate the production of IL-8 in activated monocytes, or upregulate secretion of IL-8 in unstimulated monocytes. Test compounds are incubated for sixteen hours with purified human monocytes at four dilutions over a range of three log10 concentrations. Where appropriate, lipopolysaccharide (LPS) is used to stimulate the monocytes.
The level of IL-8 in the resultant supernatants is quantitated in a solid phase Enzyme-linked Immunoassay (EIA) performed in a 96 well format. IL-8 present in the samples is captured by a specific monoclonal antibody immobilized on the well, and probed with an anti-IL-8 polyclonal antibody conjugated to horseradish peroxidase, followed by an appropriate substrate. The levels of IL-8 are determined by interpolation of the resultant color change in the substrate from a standard curve. All supernatants are tested in duplicate with controls and standards.

Turning to `CCCCCCCCCCCCCC/C=C\CC[C@@H]1OC(=O)C(O)=C1O` [(S)-3,4-Dihydroxy-5-[(Z)-3-octadecenyl]-2(5H)-furanone], the “EFFECT on PEPTIDOLEUKOTRIENES” value in experiment [1] (STIMULATED) and in experiment [1] (UNSTIMULATED) was “NE” each time. Besides, the “EFFECT on IL1ra” value in experiment [2] (STIMULATED) and in experiment [2] (UNSTIMULATED) was “NE” in each case. For the same molecule, in experiment [3] (Homo sapiens, Monocyte, 16 h, STIMULATED, INHIB, 40% Inhibitory Concentration, read-out: IC40, IL1β), the IC40 was determined as 50 µM. Besides, the “EFFECT on IL1β” value in experiment [3] (STIMULATED) was “INHIB”; in experiment [3] (UNSTIMULATED), “NE”. The “EFFECT on IL8” value in experiment [4] (STIMULATED) and in experiment [4] (UNSTIMULATED) was “NE” in each case.
